Literature values in patent publication US7238375B1, “Composition and method to promote human hair growth” (priority 2004, dated 2007).

How the values were obtained:
sheep = details: supplement in the diet of sheep
Type 2 5-alpha-reductase = molecular target: T1, Type 2 5-alpha-reductase (Homo sapiens, UniProt P31213); details: application of copper ion to skin
T1 sequence (P31213 1-254): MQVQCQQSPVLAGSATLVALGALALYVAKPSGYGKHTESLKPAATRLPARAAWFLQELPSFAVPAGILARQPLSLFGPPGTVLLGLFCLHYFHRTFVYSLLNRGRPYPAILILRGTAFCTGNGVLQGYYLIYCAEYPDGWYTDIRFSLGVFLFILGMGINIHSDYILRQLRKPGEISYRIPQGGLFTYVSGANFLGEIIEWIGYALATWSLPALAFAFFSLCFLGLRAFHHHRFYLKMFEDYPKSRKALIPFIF

Type 1 5-alpha-reductase = molecular target: T2, Type 1 5-alpha-reductase (Homo sapiens, UniProt P18405); details: application of copper ion to skin
T2 sequence (P18405 1-259): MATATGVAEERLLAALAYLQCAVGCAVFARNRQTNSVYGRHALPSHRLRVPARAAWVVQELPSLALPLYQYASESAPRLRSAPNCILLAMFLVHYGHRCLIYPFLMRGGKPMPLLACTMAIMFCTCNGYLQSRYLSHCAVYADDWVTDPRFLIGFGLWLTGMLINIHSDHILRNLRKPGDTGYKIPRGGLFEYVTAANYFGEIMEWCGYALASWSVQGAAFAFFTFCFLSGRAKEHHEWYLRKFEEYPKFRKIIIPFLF

| Structure (SMILES) | effect on wool growth patterns (sheep) | effect on hair shafts (rats) | concentration giving 50% reduction in activity of Type 2 5-alpha-reductase (Type 2 5-alpha-reductase) | IC50 (Type 2 5-alpha-reductase; read-out: concentration giving 50% reduction in activity of Type 2 5-alpha-reductase) | concentration giving 50% reduction in activity of Type 1 5-alpha-reductase (Type 1 5-alpha-reductase) | IC50 (Type 1 5-alpha-reductase; read-out: concentration giving 50% reduction in activity of Type 1 5-alpha-reductase) |
| --- | --- | --- | --- | --- | --- | --- |
| N[C@@H](CS)C(=O)O [Cysteine] | significant modification in wool growth patterns | thicker hair shafts | – | – | – | – |
| [Cu+2] [Copper ion] | – | – | 1.2 micrograms copper ion per milliliter | 10.2 µM | 0.12 micrograms copper ion per milliliter | 1900 nM |
